Source: patent publication US20160113960A1, “TOPICAL PREPARATIONS COMPRISING HYALURONIC ACID, VERBASCOSIDE AND GLYCEROPHOSPHOINOSITOL” (ALTERGON S.A., priority 2013, published 2016)

How the values were obtained:
periodontitis model = settings: rats, cited from earlier work
[1] = target: T1, iNOS (inducible nitric oxide synthase) (Homo sapiens, UniProt P35228); settings: THP-1 cells stimulated with LPS and IFN-γ; cited from earlier work
T1 construct: human THP-1 leukemia cells stimulated with pro-inflammatory stimuli (e.g. LPS and IFN-γ) in which the activity of iNOS is overexpressed; endogenous in cells; host or cells: human THP-1 leukemia cells stimulated with LPS and IFN-γ

[2] = tested on: inflammatory chemokines such as GM-GCSF, IL-8, IP-10 and MCP-1; settings: human keratinocytes stimulated with TNFα or IFN-γ; cited from earlier work
[3] = titre of components in the muco-adhesive solution on storage at room temperature; type: physicochemical
[4] = storage stability of verbascoside with and without water; type: physicochemical
Excerpt: Therefore, in a more preferred embodiment, the ternary association of the invention is formulated in dry form or with liquid or semi-solid anhydrous ingredients. If the final formulation requires one or more aqueous ingredients, verbascoside is preferably packaged separately in conditions of absence of water (or in the dry state or with semi-solid/liquid anhydrous ingredients) and stored in that form; a preferred semi-solid form is represented by glycerogel, or gelled semi-solid and non hydrated forms with a glycerin base; upon use, verbascoside is combined with the aqueous components, obtaining the final aqueous formulation, ready for administration. The separate packaging of the above ingredients is achievable by generally known means, e.g. double chamber bags, twin-bag double chamber dispensers, etc.

[5] = spectrophotometric test with 2,2-diphenyl-1-picrylhydrazyl (DPPH), radical scavenging activity; type: biochemical; settings: for radical scavenging activity (in words): DPPH test, summary of Tables 1 and 2
Description: Evidence of the radical scavenging activity of the main ingredients of the formulations prepared, VB, HANa, GPI, were obtained with in vitro tests.
The anti-radical activity of VB alone and in combination with HANa and GPI was analyzed by spectrophotometric test with 2,2-diphenyl-1-picrylhydrazyl (DPPH). The samples were prepared respecting the proportions provided in the formulation.

[6] = muco-adhesive solution of Example 6
[7] = muco-adhesive solution of Example 7, solution pH 4.4, viscosity 145 mPas s
[8] = muco-adhesive solution of Example 8, solution pH 4.4, viscosity 60 mPas s
[9] = muco-adhesive solution of Example 9, iota carrageenan solution, pH 4.3

% titre at 30 days at room temperature [3, 6]	Initial % titre [3, 6]	% titre at 10 days at room temperature [3, 7]	Initial % titre [3, 7]	% titre at 10 days at room temperature [3, 8]	Initial % titre [3, 8]	% titre at 30 days at room temperature [3, 9]	Initial % titre [3, 9]	Molecule	radical scavenging activity (in words) [5]	further results
92.5%	99.6%	98.71%	101.68%	98.55%	102.2%	92.9%	101.7%	C[C@@H]1O[C@@H](O[C@@H]2[C@@H](O)[C@H](OCCc3ccc(O)c(O)c3)O[C@H](CO)[C@H]2OC(=O)/C=C/c2ccc(O)c(O)c2)[C@H](O)[C@H](O)[C@H]1O [VB, Verbascoside]	clear	parameters of inflammation (periodontitis model; oral administration 2 mg/kg/day for 8 days): significantly reduces; anti-inflammatory effect (periodontitis model; periodontitis model): marked anti-inflammatory effect; expression and activity of iNOS and superoxide radicals [1]: significant decrease; inflammatory chemokines such as GM-GCSF, IL-8, IP-10 and MCP-1 [2]: reduces in a dose-dependent manner; time for which a high titre is maintained ([3]; after extemporaneous incorporation with the aqueous component, room temperature): at least 30 days; stability ([4]; in an aqueous medium): particularly labile; stability upon storage ([4]; stored in the absence of water): particularly stable; Radical scavenging activity (%) ([5]; VB concentration 3.3 μM (2.1 mg/L)): 15%; Radical scavenging activity (%) ([5]; VB concentration 6.6 μM (4.1 mg/L)): 24%; Radical scavenging activity (%) ([5]; VB concentration 13.2 μM (8.3 mg/L)): 42%; Radical scavenging activity (%) ([5]; VB concentration 26.5 μM (16.6 mg/L)): 76%; Radical scavenging activity (%) ([5]; VB concentration 53 μM (33.1 mg/L)): 95%; Radical scavenging activity (%) ([5]; concentration 15.6 mg/L): 74%
98.2%	99.5%	102.88%	99.63%	102.24%	98.17%	100.8%	100.6%	O=P(O)(OC[C@H](O)CO)OC1[C@H](O)[C@H](O)C(O)[C@H](O)[C@H]1O (stereo partly drawn) [GPI, Inositol glycerophosphate]	essentially showed no activity	Radical scavenging activity (%) ([5]; concentration 78 mg/L): 1%
100.7%	101.3%	96.26%	99.32%	96.26%	98.48%	114.9%	114.6%	Hyaluronic acid sodium salt [HANa]	essentially showed no activity	Radical scavenging activity (%) ([5]; concentration 62.4 mg/L): 1%
